Assay results taken from paper PMC8080530, “Glucocorticoid receptor Thr524 phosphorylation by MINK1 induces interactions with 14-3-3 protein regulators” (The Journal of Biological Chemistry, 2021).
Like-named read-outs stand apart in the source and are kept apart here. Non-standard residues stand in square brackets, D forms with d. Residues, ends and D or L forms follow the SMILES beside them. pT = C[C@@H](OP(=O)(O)O)[C@H](N)C(=O)O; pS = N[C@@H](COP(=O)(O)O)C(=O)O

Target: T1, 14-3-3ζ (Homo sapiens, UniProt P63104)
T1 construct: Full-length expression and purification of 14-3-3; made in house; host or cells: E. coli BL21 (DE3)STAR
T1 sequence (P63104 1-245): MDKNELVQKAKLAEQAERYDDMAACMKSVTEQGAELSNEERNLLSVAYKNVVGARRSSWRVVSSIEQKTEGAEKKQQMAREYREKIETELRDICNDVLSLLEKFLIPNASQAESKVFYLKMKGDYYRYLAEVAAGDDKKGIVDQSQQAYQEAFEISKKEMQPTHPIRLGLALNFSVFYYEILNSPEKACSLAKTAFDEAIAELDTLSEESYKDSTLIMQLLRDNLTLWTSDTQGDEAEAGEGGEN
Experiment: FP assay with GR phosphorylated peptides and 14-3-3ζ
Assay type: binding
Procedure: After 30-min incubation at RT, the plates were read on a plate reader PHERAstar (BMG LABTECH GmbH) for FP signal using […] and standard excitation (485 nm) and emission (520 nm). Measurements were performed as triplicates. Binding data were fit to a standard Hill equation using the software Genedata Screener. The figures were made using the software GraphPad Prism 8. FP data were expressed as millipolarization (mP) units, and the dynamic range (ΔmP) was the difference of the signals from the bound peptide and free peptide. Errors are the standard error of the fit.

[1] = read-out: PKd with 14-3-3ζ (converted)

Row | Structure (SMILES) | Kd [1] | other results
1 | CC[C@H](C)[C@H](NC(=O)[C@@H](NC(=O)[C@@H](N)CCCCN)[C@@H](C)O)C(=O)N[C@H](C(=O)N1CCC[C@H]1C(=O)N[C@@H](C)C(=O)N[C@H](C(=O)N[C@@H](CC(C)C)C(=O)N1CCC[C@H]1C(=O)N[C@@H](CCC(N)=O)C(=O)N[C@@H](CC(C)C)C(=O)N[C@H](C(=O)N1CCC[C@H]1C(=O)NCC(=O)NCC(=O)NCC(=O)NCC(=O)NCC(=O)N[C@@H](CCCNC(=N)N)C(=O)N[C@@H](C)C(=O)N[C@@H](Cc1ccc(O)cc1)C(=O)N[C@@H](CCCNC(=N)N)C(=O)N[C@@H](CCC(N)=O)C(=O)N[C@@H](CO)C(=O)N[C@@H](COP(=O)(O)O)C(=O)N[C@@H](C)C(=O)N[C@@H](CC(N)=O)C(=O)N[C@@H](CC(C)C)C(=O)N[C@@H](CC(C)C)C(=O)N[C@@H](CS)C(=O)N[C@@H](Cc1ccccc1)C(=O)O)[C@@H](C)O)[C@@H](C)OP(=O)(O)O)C(C)C [GR_S612A] (H-KTIVPA[pT]LPQLTPGGGGGRAYRQS[pS]ANLLCF-OH) | 31.6 nM | 
2 | CC[C@H](C)[C@H](NC(=O)[C@@H](NC(=O)[C@@H](N)CCCCN)[C@@H](C)O)C(=O)N[C@H](C(=O)N1CCC[C@H]1C(=O)N[C@@H](C)C(=O)N[C@H](C(=O)N[C@@H](CC(C)C)C(=O)N1CCC[C@H]1C(=O)N[C@@H](CCC(N)=O)C(=O)N[C@@H](C)C(=O)N[C@H](C(=O)N1CCC[C@H]1C(=O)NCC(=O)NCC(=O)NCC(=O)NCC(=O)NCC(=O)N[C@@H](CCCNC(=N)N)C(=O)N[C@@H](CO)C(=O)N[C@@H](Cc1ccc(O)cc1)C(=O)N[C@@H](CCCNC(=N)N)C(=O)N[C@@H](CCC(N)=O)C(=O)N[C@@H](CO)C(=O)N[C@@H](COP(=O)(O)O)C(=O)N[C@@H](C)C(=O)N[C@@H](CC(N)=O)C(=O)N[C@@H](CC(C)C)C(=O)N[C@@H](CC(C)C)C(=O)N[C@@H](CS)C(=O)N[C@@H](Cc1ccccc1)C(=O)O)[C@@H](C)O)[C@@H](C)OP(=O)(O)O)C(C)C [GR_L528A] (H-KTIVPA[pT]LPQATPGGGGGRSYRQS[pS]ANLLCF-OH) | 50.1 nM | 
3 | CSCC[C@H](N)C(=O)N[C@@H](CCCNC(=N)N)C(=O)N1CCC[C@H]1C(=O)N[C@@H](CC(=O)O)C(=O)N[C@H](C(=O)N[C@@H](CO)C(=O)N[C@@H](COP(=O)(O)O)C(=O)N1CCC[C@H]1C(=O)N1CCC[C@H]1C(=O)N[C@@H](CO)C(=O)N[C@@H](CO)C(=O)N[C@@H](CO)C(=O)N[C@@H](CO)C(=O)O)C(C)C [GR_pS404] (H-MRPDVS[pS]PPSSSS-OH; N-terminus assumed) |  | Kd (FITC-labeled peptide 60 nM (monophosphorylated) or 10 nM (doubly phosphorylated) titrated with 14-3-3ζ, 30 min RT, Hill fit, triplicates, read-out: Kd with 14-3-3ζ by FP): > 150000 nM
4 | CC[C@H](C)[C@H](NC(=O)[C@@H](NC(=O)[C@@H](N)CCCCN)[C@@H](C)O)C(=O)N[C@@H](C)C(=O)N1CCC[C@H]1C(=O)N[C@@H](C)C(=O)N[C@H](C(=O)N[C@@H](CC(C)C)C(=O)N1CCC[C@H]1C(=O)N[C@@H](CCC(N)=O)C(=O)N[C@@H](CC(C)C)C(=O)N[C@H](C(=O)N1CCC[C@H]1C(=O)NCC(=O)NCC(=O)NCC(=O)NCC(=O)NCC(=O)N[C@@H](CCCNC(=N)N)C(=O)N[C@@H](CO)C(=O)N[C@@H](Cc1ccc(O)cc1)C(=O)N[C@@H](CCCNC(=N)N)C(=O)N[C@@H](CCC(N)=O)C(=O)N[C@@H](CO)C(=O)N[C@@H](COP(=O)(O)O)C(=O)N[C@@H](C)C(=O)N[C@@H](CC(N)=O)C(=O)N[C@@H](CC(C)C)C(=O)N[C@@H](CC(C)C)C(=O)N[C@@H](CS)C(=O)N[C@@H](Cc1ccccc1)C(=O)O)[C@@H](C)O)[C@@H](C)OP(=O)(O)O [GR_V521A] (H-KTIAPA[pT]LPQLTPGGGGGRSYRQS[pS]ANLLCF-OH) | 39.8 nM | 
5 | CC[C@H](C)[C@H](NC(=O)[C@@H](NC(=O)[C@@H](N)CCCCN)[C@@H](C)O)C(=O)N[C@H](C(=O)N1CCC[C@H]1C(=O)N[C@@H](C)C(=O)N[C@H](C(=O)N[C@@H](CC(C)C)C(=O)N1CCC[C@H]1C(=O)N[C@@H](CCC(N)=O)C(=O)N[C@@H](CC(C)C)C(=O)N[C@H](C(=O)N1CCC[C@H]1C(=O)NCC(=O)NCC(=O)NCC(=O)NCC(=O)NCC(=O)N[C@@H](C)C(=O)N[C@@H](CO)C(=O)N[C@@H](Cc1ccc(O)cc1)C(=O)N[C@@H](CCCNC(=N)N)C(=O)N[C@@H](CCC(N)=O)C(=O)N[C@@H](CO)C(=O)N[C@@H](COP(=O)(O)O)C(=O)N[C@@H](C)C(=O)N[C@@H](CC(N)=O)C(=O)N[C@@H](CC(C)C)C(=O)N[C@@H](CC(C)C)C(=O)N[C@@H](CS)C(=O)N[C@@H](Cc1ccccc1)C(=O)O)[C@@H](C)O)[C@@H](C)OP(=O)(O)O)C(C)C [GR_R611A] (H-KTIVPA[pT]LPQLTPGGGGGASYRQS[pS]ANLLCF-OH) | 50.1 nM | 
6 | CC[C@H](C)[C@H](NC(=O)[C@@H](NC(=O)[C@@H](N)CCCCN)[C@@H](C)O)C(=O)N[C@H](C(=O)N1CCC[C@H]1C(=O)N[C@@H](C)C(=O)N[C@@H](COP(=O)(O)O)C(=O)N[C@@H](CC(C)C)C(=O)N1CCC[C@H]1C(=O)N[C@@H](CCC(N)=O)C(=O)N[C@@H](CC(C)C)C(=O)N[C@H](C(=O)N1CCC[C@H]1C(=O)NCC(=O)NCC(=O)NCC(=O)NCC(=O)NCC(=O)N[C@@H](CCCNC(=N)N)C(=O)N[C@@H](CO)C(=O)N[C@@H](Cc1ccc(O)cc1)C(=O)N[C@@H](CCCNC(=N)N)C(=O)N[C@@H](CCC(N)=O)C(=O)N[C@@H](CO)C(=O)N[C@@H](COP(=O)(O)O)C(=O)N[C@@H](C)C(=O)N[C@@H](CC(N)=O)C(=O)N[C@@H](CC(C)C)C(=O)N[C@@H](CC(C)C)C(=O)N[C@@H](CS)C(=O)N[C@@H](Cc1ccccc1)C(=O)O)[C@@H](C)O)C(C)C [GR_pS524-pS617] (H-KTIVPA[pS]LPQLTPGGGGGRSYRQS[pS]ANLLCF-OH) |  | Kd (FP, doubly phosphorylated 31-mer peptides, triplicates, read-out: Kd with 14-3-3ζ (values in nM)): 140 nM
7 | CC[C@H](C)[C@H](NC(=O)[C@H](CCCNC(=N)N)NC(=O)[C@H](Cc1c[nH]c2ccccc12)NC(=O)[C@@H](N)[C@@H](C)O)C(=O)N[C@@H](CCSC)C(=O)N[C@H](C(=O)N[C@H](C(=O)N[C@@H](CC(C)C)C(=O)N[C@@H](CC(N)=O)C(=O)N[C@@H](CCSC)C(=O)N[C@@H](CC(C)C)C(=O)NCC(=O)NCC(=O)O)[C@@H](C)OP(=O)(O)O)[C@@H](C)O [GR_pT562] |  | Kd (method not given, read-out: Kd with 14-3-3ζ): 200000 nM
8 | CC[C@H](C)[C@H](NC(=O)[C@@H](NC(=O)[C@@H](N)CCCCN)[C@@H](C)O)C(=O)N[C@H](C(=O)N1CCC[C@H]1C(=O)N[C@@H](C)C(=O)N[C@H](C(=O)N[C@@H](CC(C)C)C(=O)N1CCC[C@H]1C(=O)N[C@@H](CCC(N)=O)C(=O)N[C@@H](CC(C)C)C(=O)N[C@H](C(=O)N1CCC[C@H]1C(=O)NCC(=O)NCC(=O)NCC(=O)NCC(=O)NCC(=O)N[C@@H](CCCNC(=N)N)C(=O)N[C@@H](CO)C(=O)N[C@@H](Cc1ccc(O)cc1)C(=O)N[C@@H](CCCNC(=N)N)C(=O)N[C@@H](CCC(N)=O)C(=O)N[C@@H](CO)C(=O)N[C@@H](C)C(=O)N[C@@H](C)C(=O)N[C@@H](CC(N)=O)C(=O)N[C@@H](CC(C)C)C(=O)N[C@@H](CC(C)C)C(=O)N[C@@H](CS)C(=O)N[C@@H](Cc1ccccc1)C(=O)O)[C@@H](C)O)[C@@H](C)OP(=O)(O)O)C(C)C [GR_pT524-S617A] (H-KTIVPA[pT]LPQLTPGGGGGRSYRQSAANLLCF-OH) | 1260 nM | 
